Data reported in patent US20250115597A1, “TYK2 INHIBITORS AND COMPOSITIONS AND METHODS THEREOF” (LYNK PHARMACEUTICALS CO. LTD., priority 2021, published 2025).

Columns and labels:
TYK2-JH2 domain = target: T1, TYK2-JH2 domain (Homo sapiens, UniProt P29597); test: Binding activity test for JH2 domain of TYK2 (Tb-antibody/tracer FRET); conditions: for JAK1/TYK2 selectivity: ratio JAK1-JH2 IC50 / TYK2-JH2 IC50
T1 construct: IC50 on JH2 domain activity (nM)
Procedure, shortened: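 Compounds tested as 11-point 3-fold serial dilutions against the JH2 domain in a Tb-antibody/tracer FRET binding format. Plates incubated 60 min at 25° C, then overnight at 4° C, before FRET reading.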

[1] = target: T2, Ba/F3-FL-TYK2-P760L cells (Homo sapiens, UniProt P29597, P760L, cells depend on it); test: Anti-proliferative assay, Ba/F3-FL-TYK2-P760L cells (Cell-Titer Glo); format: cell-based; conditions: 72 h, read-out: BaF3-FL-T2P760L IC50
T2 construct: BaF3-FL-T2P760L (nM)
Procedure, shortened: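 Ba/F3 cells made IL-3-independent by TEL-fused or full-length mutant JAK-family kinases, seeded at 2000/well and dosed after 24 h with 9 three-fold dilutions topping at 20 μM. Viability after 72 h at 37 °C, 5% CO2 by Cell-Titer Glo ATP luminescence.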

JAK1-JH2 domain = target: T3, JAK1-JH2 domain (Homo sapiens, UniProt P23458); test: Binding activity test for JH2 domain of JAK1 (Tb-antibody/tracer FRET)
T3 construct: IC50 on JH2 domain activity (nM)
Description: Binding Activity Test for […] Domain of JAK1 and TYK2 The compounds are prepared in DMSO for 200× top dose, then serial dilute it with 27-fold for 3 more points. Add 8 μL/well in echo source plate, echo will add 75 nL/well with 3-fold serial dilution for 11 points in assay plate. 75 nL DMSO for high control and low control. […] For low control, add 5 μL/well assay buffer. And then spin down at 1000 rpm and centrifuge for 30 seconds. After enzyme system prepared, add 5 μL of Tb-antibody solution into each wells of assay plate. Spin down at 1000 rpm and centrifuge for 30 sec. After Tb-antibody added, also add 5 μL of tracer into the assay plate. Spin down at 1000 rpm and centrifuge for 30 sec. Incubate for 60 mins at 25° C. firstly and then continue to incubate the plate at 4° C. overnight. Read by envision in FRET mode. The Luminescence value was recorded by a multi-label reader Envision (PerkinElmer).

T3 sequence (P23458 583-855 limits assumed): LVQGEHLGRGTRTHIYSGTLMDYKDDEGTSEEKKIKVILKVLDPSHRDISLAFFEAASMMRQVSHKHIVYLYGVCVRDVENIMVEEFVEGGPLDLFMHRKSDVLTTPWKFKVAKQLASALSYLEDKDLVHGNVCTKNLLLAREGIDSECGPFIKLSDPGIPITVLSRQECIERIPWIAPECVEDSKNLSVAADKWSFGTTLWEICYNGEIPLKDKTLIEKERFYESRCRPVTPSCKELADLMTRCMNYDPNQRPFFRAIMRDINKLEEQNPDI
T1 sequence (P29597 589-875 limits assumed): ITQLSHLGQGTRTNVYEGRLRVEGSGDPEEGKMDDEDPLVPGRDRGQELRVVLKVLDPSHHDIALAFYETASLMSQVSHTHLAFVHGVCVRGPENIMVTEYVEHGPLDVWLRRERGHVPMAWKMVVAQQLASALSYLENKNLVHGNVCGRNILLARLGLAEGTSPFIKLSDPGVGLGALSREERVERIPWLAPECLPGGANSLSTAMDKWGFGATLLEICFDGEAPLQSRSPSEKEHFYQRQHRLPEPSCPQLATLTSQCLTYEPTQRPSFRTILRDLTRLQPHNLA
T2 sequence (P29597 whole entry P760L): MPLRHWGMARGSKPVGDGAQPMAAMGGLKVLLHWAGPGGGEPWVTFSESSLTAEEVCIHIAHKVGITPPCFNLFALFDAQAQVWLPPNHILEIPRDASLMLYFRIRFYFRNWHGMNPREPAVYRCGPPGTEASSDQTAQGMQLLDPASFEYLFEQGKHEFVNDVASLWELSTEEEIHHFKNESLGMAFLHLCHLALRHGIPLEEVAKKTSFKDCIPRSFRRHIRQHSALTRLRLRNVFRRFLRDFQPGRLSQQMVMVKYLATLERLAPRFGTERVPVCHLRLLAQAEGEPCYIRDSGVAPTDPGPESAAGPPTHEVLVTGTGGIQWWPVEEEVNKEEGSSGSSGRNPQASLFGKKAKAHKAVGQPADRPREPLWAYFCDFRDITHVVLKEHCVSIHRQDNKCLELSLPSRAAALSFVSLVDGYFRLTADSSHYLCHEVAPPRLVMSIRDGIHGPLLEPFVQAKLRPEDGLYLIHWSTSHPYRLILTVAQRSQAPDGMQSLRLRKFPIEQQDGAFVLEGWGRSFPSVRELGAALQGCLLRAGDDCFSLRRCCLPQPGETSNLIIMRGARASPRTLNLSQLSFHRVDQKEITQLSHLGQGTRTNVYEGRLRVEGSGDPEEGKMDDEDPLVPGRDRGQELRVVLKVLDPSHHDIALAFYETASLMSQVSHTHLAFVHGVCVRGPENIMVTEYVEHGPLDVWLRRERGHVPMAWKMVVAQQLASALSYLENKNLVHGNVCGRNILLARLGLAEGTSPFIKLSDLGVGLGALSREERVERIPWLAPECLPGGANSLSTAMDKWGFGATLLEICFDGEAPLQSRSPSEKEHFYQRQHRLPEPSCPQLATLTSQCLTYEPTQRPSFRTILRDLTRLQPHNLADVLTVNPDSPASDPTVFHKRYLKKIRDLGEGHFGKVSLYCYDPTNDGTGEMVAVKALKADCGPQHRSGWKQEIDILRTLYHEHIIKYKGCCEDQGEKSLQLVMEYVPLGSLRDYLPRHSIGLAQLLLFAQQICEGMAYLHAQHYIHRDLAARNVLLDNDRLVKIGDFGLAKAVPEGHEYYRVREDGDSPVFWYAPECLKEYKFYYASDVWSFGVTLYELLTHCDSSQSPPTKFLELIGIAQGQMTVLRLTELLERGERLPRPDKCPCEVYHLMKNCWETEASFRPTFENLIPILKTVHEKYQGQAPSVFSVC

Structure (SMILES)	IC50 (TYK2-JH2 domain) [nM]	JAK1/TYK2 selectivity (TYK2-JH2 domain)	GI50 [1] [nM]	IC50 (JAK1-JH2 domain) [nM]
[2H]C([2H])([2H])NC(=O)c1cnc(Nc2ccn(C)n2)cc1Nc1ccn2ncc(C#N)c2c1OC [Example 240, 4-((3-Cyano-4-methoxypyrazolo[1,5-a]pyridin-5-yl)amino)-N-(methyl-d3)-6-((1-methyl-1H-pyrazol-3-yl)amino)nicotinamide]	0.26	19.5	70.7	5.07
[2H]C([2H])([2H])NC(=O)c1cnc(NC(=O)C2CCC2)cc1Nc1ccc2cnn(CC)c2c1OC [Example 242, 6-(Cyclobutanecarboxamido)-4-((1-ethyl-7-methoxy-1H-indazol-6-yl)amino)-N-(methyl-d3)nicotinamide]	1.18	38.5	404	45.3
[2H]C([2H])([2H])NC(=O)c1cnc(NC(=O)C2CC2)cc1Nc1ccn2ncc(CC(N)=O)c2c1OC [Example 243, 4-((3-(2-Amino-2-oxoethyl)-4-methoxypyrazolo[1,5-a]pyridin-5-yl)amino)-6-(cyclopropanecarboxamido)-N-(methyl-d3)nicotinamide]	3.45	37.7	> 5000	130
CCn1ccc2c(c(Nc3cc(NC(=O)C4CC4)ncc3C(=O)NC)cn2C2CC2)c1=O [Example 245, 6-(Cyclopropanecarboxamido)-4-((1-cyclopropyl-5-ethyl-4-oxo-4,5-dihydro-1H-pyrrolo[3,2-c]pyridin-3-yl)amino)-N-methylnicotinamide]	0.157	27.7	56.4	4.34

The remaining lines, values ahead:

IC50 (TYK2-JH2 domain) [nM]	JAK1/TYK2 selectivity (TYK2-JH2 domain)	GI50 [1] [nM]	IC50 (JAK1-JH2 domain) [nM]	Structure (SMILES)
0.233	30.19	160	7.04	[2H]C([2H])([2H])NC(=O)c1cnc(NC(=O)C2CC2)cc1Nc1ccn2ncc(C3CC3)c2c1OC [Example 250, 6-(Cyclopropanecarboxamido)-4-((3-cyclopropyl-4-methoxypyrazolo[1,5-a]pyridin-5-yl)amino)-N-(methyl-d3)nicotinamide]
0.304	18.32	117	5.57	[2H]C([2H])([2H])NC(=O)c1cnc(NC(=O)C2CC2)cc1Nc1ccn2ncc(C(C)C#N)c2c1OC (stereo not shown) [Example 251, 4-((3-(1-Cyanoethyl)-4-methoxypyrazolo[1,5-a]pyridin-5-yl)amino)-6-(cyclopropanecarboxamido)-N-(methyl-d3)nicotinamide]
1.68	125.69	> 5000	212	[2H]C([2H])([2H])NC(=O)c1cnc(NC(=O)C2CC2)cc1Nc1ccn2ncc(C(C)C(N)=O)c2c1OC (stereo not shown) [Example 252, 4-((3-(1-Amino-1-oxopropan-2-yl)-4-methoxypyrazolo[1,5-a]pyridin-5-yl)amino)-6-(cyclopropanecarboxamido)-N-(methyl-d3)nicotinamide]
0.783	24.33	232	19	[2H]C([2H])([2H])NC(=O)c1cnc(NC(=O)C2CC2)cc1Nc1ccn2ncc(F)c2c1OC [Example 253, 6-(Cyclopropanecarboxamido)-4-((3-fluoro-4-methoxypyrazolo[1,5-a]pyridin-5-yl)amino)-N-(methyl-d3)nicotinamide]
0.323	13.7	116	4.42	[2H]C([2H])([2H])NC(=O)c1cnc(Nc2ccn(C)n2)cc1Nc1ccn2ncc(C)c2c1OC [Example 255, 4-((4-Methoxy-3-methylpyrazolo[1,5-a]pyridin-5-yl)amino)-N-(methyl-d3)-6-((1-methyl-1H-pyrazol-3-yl)amino)nicotinamide]
0.834	17.9	205	14.9	[2H]C([2H])([2H])NC(=O)c1cnc(NC(=O)C2CC2)cc1Nc1ccn2nccc2c1OC [Example 258, 6-(Cyclopropanecarboxamido)-4-((4-methoxypyrazolo[1,5-a]pyridin-5-yl)amino)-N-(methyl-d3)nicotinamide]
